Reference: patent US6783756B2, “Methods for regulating gene expression” (Abbott GmbH & Co., KG, priority 1993, dated 2004)

What was measured:
[1] = compared to Tc; cited from earlier work
HeLa cells = experiment: Growth behavior and morphology of HeLa cells in tetracycline-containing medium; type: cell-based, human
Method: The tTA inactivation studies were carried out with 1 μg of tetracycline per ml in the culture medium. […] Only at tetracycline concentrations well above 10 μg/ml were such changes observed upon prolonged incubation.

tTA = biological target: T1, tTA (Escherichia coli, UniProt P04483); experiment: Kinetics of tetracycline action on luciferase activity in X1 cells; type: cell-based, human; details: for Luciferase activity after addition of tetracycline, share of original value: tetracycline 1 μg/ml
T1 construct: LOCATION: 1..207; expressed in transfected cells
Method: FIG. 3B: Kinetics of tetracycline action. X1 cells were grown in 100 mm dishes to 80% confluency in the absence or presence (0.1 μg/ml) of tetracycline. At time 0, cells were washed with phosphate-buffered saline and split into smaller culture dishes ( 1/20th of the initial cultures per 35 mm dish). Half of the cultures remained in tetracycline-free medium (▪) and the other half were incubated in the presence of tetracycline (1 μg/ml; □). The X1 culture grown in tetracycline-containing medium was split in the same manner; one half was further incubated in the presence of tetracycline (●), whereas the other half was transferred to tetracycline-free medium (∘). At the times indicated, aliquots were harvested and examined for luciferase activity. The slight increase in luciferase activity monitored at 4 hr in the culture containing tetracycline (●) is reproducible and reflects luciferase induction during the washing step.
The time course of tetracycline action was analyzed in cultures grown in the absence or presence of tetracycline. At time 0, the antibiotic was added to the tetracycline-free cultures (final concentration, 1 μg/ml), whereas the tetracycline-containing cultures were rinsed and incubated in fresh antibiotic-free medium (FIG. 3 panel b). At various times, cells were harvested and analyzed for luciferase activity. […] A similarly rapid reduction of luciferase activity was observed when tetracycline was added to the fully active tetracycline-free system: within 8 hr activity dropped to about 10% and reached <2% of its original value after 12 hr.

lacR = lacR (Escherichia coli, UniProt P03023); details: cited from earlier work
lacR/O = details: eucaryotic cells; cited from earlier work

T1 sequence (P04483 whole entry, added parts left off): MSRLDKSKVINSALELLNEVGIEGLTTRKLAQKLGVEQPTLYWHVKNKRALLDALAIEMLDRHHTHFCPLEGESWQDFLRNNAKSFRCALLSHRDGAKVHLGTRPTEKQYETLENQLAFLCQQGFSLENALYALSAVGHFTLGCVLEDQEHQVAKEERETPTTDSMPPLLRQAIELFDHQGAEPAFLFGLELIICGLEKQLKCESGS
Sequence of lacR (P03023 whole entry): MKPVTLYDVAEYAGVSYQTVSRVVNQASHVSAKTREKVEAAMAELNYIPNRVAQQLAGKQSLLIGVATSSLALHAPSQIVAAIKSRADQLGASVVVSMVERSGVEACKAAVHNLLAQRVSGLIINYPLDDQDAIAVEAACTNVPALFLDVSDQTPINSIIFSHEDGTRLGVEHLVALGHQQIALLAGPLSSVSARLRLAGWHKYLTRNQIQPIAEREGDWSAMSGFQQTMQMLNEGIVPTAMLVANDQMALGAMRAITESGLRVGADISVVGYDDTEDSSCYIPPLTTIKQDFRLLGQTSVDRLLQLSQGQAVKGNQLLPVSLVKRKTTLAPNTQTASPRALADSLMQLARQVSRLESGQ

For `Cc1c2c(c(O)c3c(O)cccc13)C(=O)[C@]1(O)C(=O)C(C(N)=O)=C(O)[C@@H](N(C)C)[C@@H]1C2` [anhydrotetracycline], the Antibiotic activity [1] is given as “reduced antibiotic activity compared to Tc”.

For `CN(C)[C@@H]1C(O)=C(C(N)=O)C(=O)[C@@]2(O)C(O)=C3C(=O)c4c(O)cccc4[C@@](C)(O)[C@H]3C[C@@H]12` [tetracycline], the “Tetracycline concentration at which changes in growth behavior or morphology were observed” value (HeLa cells; prolonged incubation) was “above 10 μg/ml”, the “Change in growth behavior or morphology of HeLa cells” value (HeLa cells; tetracycline 0.1 μg/ml) was “no change in growth behavior or morphology” and the “Luciferase activity after addition of tetracycline, share of original value” (tTA; after 12 hr) was < 2%. For the same compound, the “Luciferase activity after addition of tetracycline, share of original value” (tTA; within 8 hr) was “about 10%” and the “Luciferase activity after depletion of tetracycline, share of fully induced (steady-state) level” value (tTA; within 12 hr after shift to tetracycline-free medium) was > 20%.

In the case of `CN(C)[C@H]1C(O)=C(C(N)=O)C(=O)[C@@]2(O)C(O)=C3C(=O)c4c(O)cccc4[C@@](C)(O)[C@H]3[C@H](O)[C@@H]12` [epioxytetracycline], the Antibiotic activity [1] is given as “reduced antibiotic activity compared to Tc”.

For `CC(C)S[C@@H]1O[C@H](CO)[C@H](O)[C@H](O)[C@H]1O` [IPTG, isopropyl.β-D-thiogalactopyranoside], the “ka of lacR for IPTG” value (lacR) is given as 10^6 M^−1, the “Reduction of binding constant kRo by the inducer” value (lacR; lacR/O system) is given as 1000 fold and the “Induction by IPTG” value (lacR/O) is given as “only moderate induction”.
